Measurements reported in article PMC4240550 (PLoS ONE, 2014).
Several values for one entry are separate records, joined by “and”; a condition that tells them apart may be missing. Equal entries are not always repeated. Where two headings read alike, the source gives them in different places.

Key:
[1] = target: T1, LecB (Pseudomonas aeruginosa, UniProt Q9HYN5); conditions: for N: ITC stoichiometry; for difference in Kd / binding affinity from the equatorial methyl group: microcalorimetry, vs analog lacking the methyl group (4 vs 5; 3 vs 7)
T1 sequence (Q9HYN5 entry or part of it): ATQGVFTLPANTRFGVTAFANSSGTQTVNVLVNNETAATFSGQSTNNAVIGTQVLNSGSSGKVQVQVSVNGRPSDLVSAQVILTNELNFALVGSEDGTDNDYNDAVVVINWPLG

[2] = target: T1, LecB; conditions: ITC; cited from earlier work
[3] = target: T1, LecB; assay: biochemical; type: binding; conditions: IC50, fluorescence polarization, TBS/Ca pH 7.4; mean ± SD of minimum three independent measurements of triplicates
[4] = target: T1, LecB; assay: biochemical
[5] = validation titration of LecB (56.1 µM) with 1 (700 µM)
[6] = 25°C, mean ± SD of minimum three titrations (5: indirect titration with 3, two titrations)
[7] = mean ± SD of minimum three titrations (5: indirect titration with 3, two titrations)

## CO[C@@H]1O[C@@H](C)[C@@H](O)[C@@H](O)[C@@H]1O [compound 1, methyl α-L-fucoside, reference compound]
[1]; methyl α-L-fucoside (1) compared with 1-deoxy L-fucose (3)
  difference in Gibbs energy: -1.5 kJ/mol
[1]; [5]
  ΔG: -35.67 kJ/mol
  ΔH: -38.73 kJ/mol
[2]
  -TΔS: 4.9 kJ/mol
  ΔH: -41.3 kJ/mol

## OC1[C@H](O)COC[C@H]1O [compound 7, 1-deoxy D-arabinose]
[3]
  IC50: 9.7 µM and 9.65 µM
[1]; [6]
  -TΔS: 4.79 ± 2.4 kJ/mol
  ΔG: -30.5 ± 0.3 kJ/mol
  ΔH: -35.3 ± 2.4 kJ/mol
[1]; [7]
  N: 0.81 ± 0.1
[4]
  Kd: 4.46 ± 0.7 µM

## CO[C@H]1O[C@H](CO)[C@@H](O)[C@H](O)[C@@H]1O [compound 2, methyl α-D-mannoside]
[2]
  -TΔS: -5.9 kJ/mol
  ΔH: -17.8 kJ/mol

## OC[C@H]1OC[C@@H](O)[C@@H](O)[C@@H]1O [compound 5, 1-deoxy D-mannose]
[3]
  IC50: 104 µM
[1]; [6]
  -TΔS: -5.92 ± 1.6 kJ/mol
  ΔG: -23.8 ± 0.9 kJ/mol
  ΔH: -17.9 ± 0.6 kJ/mol
[1]; [7]
  N: 0.87 ± 0.18
[4]
  Kd: 69.1 ± 25 µM

## CC1OCC(O)C(O)C1O [compound 3, 1-deoxy L-fucose]
[3]
  IC50: 1.6 ± 0.7 µM
[1]; [6]
  -TΔS: 1.37 ± 1.1 kJ/mol
  ΔG: -34.9 ± 0.3 kJ/mol
  ΔH: -36.3 ± 0.9 kJ/mol
[1]; [7]
  N: 1.07 ± 0.03
[1]
  difference in Kd / binding affinity from the equatorial methyl group: 4- to 6 fold
[4]
  Kd: 0.77 ± 0.1 µM

## CO[C@@H]1OC[C@@H](O)[C@@H](O)[C@@H]1O [compound 13, methyl β-D-arabinoside]
[3]
  IC50: 3.4 µM
[2]
  -TΔS: 5.4 kJ/mol
  Kd: 1700 nM
  ΔG: -33.0 kJ/mol
  ΔH: -37.9 kJ/mol

## C[C@@H]1O[C@H](CO)[C@@H](O)[C@H](O)[C@@H]1O [compound 4, β-L-fucopyranosyl methanol]
[3]
  IC50: 23 µM and 22.9 µM
[1]; [6]
  -TΔS: -2.46 ± 1.4 kJ/mol
  ΔG: -27.5 ± 1.0 kJ/mol
  ΔH: -25.0 ± 1.6 kJ/mol
[1]; [7]
  N: 0.86 ± 0.1
[1]
  difference in Kd / binding affinity from the equatorial methyl group: 4- to 6 fold
[4]
  Kd: 16.1 µM

## C[C@@H]1O[C@H](C)[C@@H](O)[C@H](O)[C@@H]1O [compound 6, β-L-fucopyranosyl methane]
[3]
  IC50: 21 µM and 20.6 µM
[1]; [6]
  -TΔS: -1.29 ± 1.8 kJ/mol
  ΔG: -27.2 ± 0.3 kJ/mol
  ΔH: -25.9 ± 1.6 kJ/mol
[1]; [7]
  N: 0.86 ± 0.2
[4]
  Kd: 16.9 ± 1.9 µM
